The target in test [1] is GDP-loaded wild-type KRAS (WT) (Homo sapiens, UniProt P01116). Kind of test: KRAS (GDP) biochemical TR-FRET probe displacement assay, WT. Type of test: binding. The settings on record: 2 hours at room temperature. As to the method:
(§1) • Compounds were tested for binding to GDP-loaded wild-type KRAS (WT), KRAS-G12C, KRAS-G12D, and KRAS-G12V in a 384-well assay format using a TR-FRET probe displacement assay in buffer consisting of 50 mM Hepes (pH 7.4), 150 mM NaCl. 5 mM MgCl2 and 0.005% Tween-20. 0.03 nM KRAS was used in this assay with 0.02 nM Eu-streptavidin and 12 nM Cy-5 labelled probe. Compounds were serially diluted (1:3) in DMSO. The LabCyte ECHO Acoustic dispenser was used to pre-spot the assay plates (384-well Non-Binding Surface plates, Corning, Catalog #3824) with 50 nL of compound. 5 μL of 2× enzyme concentration was added to the pre-spotted plates and incubated for 30 minutes before adding 5 μL of 2× concentration of Eu-streptavidin and Cy-5 labelled probe (10 μL final reaction volume). The plates were incubated at room temperature for 2 hours before measuring TR-FRET ratio (665 nm/615 nm) on the Envision multimode plate reader. The ratios were normalized to a positive (saturating concentration of known inhibitor) and negative (DMSO) control and plotted against the log of compound concentration. […]
Background: In TR-FRET formats the signal depends on donor and acceptor labels being close together.

A further test addresses GDP-loaded KRAS-G12C (Homo sapiens, UniProt P01116, G12C). Kind of test: KRAS (GDP) biochemical TR-FRET probe displacement assay, G12C. Type of test: binding. As to conditions: 2 hours at room temperature. As to the method:
as §1

A further test addresses GDP-loaded KRAS-G12V (Homo sapiens, UniProt P01116, G12V). In words: KRAS (GDP) biochemical TR-FRET probe displacement assay, G12V. It counts as binding. The settings on record: 2 hours at room temperature. As to the method:
as §1

The next test addresses GDP-loaded KRAS-G12D (Homo sapiens, UniProt P01116, G12D). Kind of test: KRAS (GDP) biochemical TR-FRET probe displacement assay, G12D. The settings on record: 2 hours at room temperature. It counts as binding. As to the method:
as §1

The test system of test [2] is cellular pERK in Kuramochi (WT KRAS) cell-line. Kind of test: Cell based pERK assay, Kuramochi. The settings on record: 2 h, Kuramochi (WT KRAS) cells, 2 hours compound incubation, HTRF Phospho-ERK1/2. As to the method: (§2) Compounds were tested in a 384-well assay format for their ability to inhibit cellular pERK in Kuramochi (WT KRAS), MIA-PaCa-2 (KRAS-G12C), ASPC-1 (KRAS G12D), and NCI-H441 (KRAS-G12V) cell-lines. Compounds were serially diluted (1:3) in DMSO. On day −1, 80 μL of cells were plated per well in the 384 well tissue-culture plates (Greiner: Cat #781080) to seed 5000 cells per wells of AsPC-1 or 7500 cells of MIA-PaCa-2, NCI-H441, and Kuramochi cell lines in RPMI (Corning: Cat #10-040-CM) with 10% fetal bovine serum (FBS) (HyClone: Cat #SH30071-03) and IX penicillin-streptomycin-glutamate (PSG) (Corning: Cat #30-009-C1) for […] and Kuramochi cell lines and DMEM (Corning: Cat #15-018-CM) with 10% FBS and 1×PSG for MIA-PaCa-2 cell line. The plates were then incubated overnight at 37° C. and 5% CO2. On day 0, 400 nL of compound/well was added into the cell plates and mixed 5 times by pipetting using a Beckmann Biomek FX. The cell plates were then incubated for 2 hours at 37° C. and 5% CO2. HTRF Advanced Phospho-ERK1/2 (THR202/TYR204) Detection Kits (PerkinElmer: Cat #64AERPEG) were used to prepare the lysis and detection solution according to manufacturer protocol. Following the 2 hour incubation, 70 μL of medium was aspirated from the plates and 10 μL of lysis and detection solution was added to the plates using a Biotek EL406 washer and dispenser. Plates were sealed and stored overnight at room temperature. HTRF ratio (665 nm/615 nm) was read by Envision multimode reader (PerkinElmer) the next day. The TR-FRET ratios were normalized to a positive (saturating concentration of known inhibitor) and negative (DMSO) control and plotted against the log of compound concentration.

The test system of test [3] is cellular pERK in MIA-PaCa-2 (KRAS-G12C) cell-line. In words: Cell based pERK assay, MIA-PaCa-2. The settings on record: Homo sapiens; MIA-PaCa-2 (KRAS-G12C) cells, 2 hours compound incubation, HTRF Phospho-ERK1/2; read-out: MIAPaCa2 pERK EC50. Here is the method: as §2
Test [4] concerns cellular pERK in NCI-H441 (KRAS-G12V) cell-line. In words: Cell based pERK assay, NCI-H441. The settings on record: Homo sapiens; NCI-H441 (KRAS-G12V) cells, 2 hours compound incubation, HTRF Phospho-ERK1/2. Here is the method:
as §2

Test [5] concerns cellular pERK in ASPC-1 (KRAS G12D) cell-line. In words: Cell based pERK assay, ASPC-1. As to conditions: Homo sapiens, ASPC1, 2 h, ASPC-1 (KRAS G12D) cells, 2 hours compound incubation, HTRF Phospho-ERK1/2. As to the method:
as §2

GDP-loaded wild-type KRAS (WT), sequence (P01116 1-188 isoform P01116-2): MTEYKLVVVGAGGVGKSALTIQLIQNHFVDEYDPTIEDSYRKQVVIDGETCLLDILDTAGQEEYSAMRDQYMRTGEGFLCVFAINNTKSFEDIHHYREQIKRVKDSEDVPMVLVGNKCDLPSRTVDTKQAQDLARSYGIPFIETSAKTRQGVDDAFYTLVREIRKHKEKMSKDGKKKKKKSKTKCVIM
GDP-loaded KRAS-G12D, sequence (P01116 1-188 isoform P01116-2 G12D): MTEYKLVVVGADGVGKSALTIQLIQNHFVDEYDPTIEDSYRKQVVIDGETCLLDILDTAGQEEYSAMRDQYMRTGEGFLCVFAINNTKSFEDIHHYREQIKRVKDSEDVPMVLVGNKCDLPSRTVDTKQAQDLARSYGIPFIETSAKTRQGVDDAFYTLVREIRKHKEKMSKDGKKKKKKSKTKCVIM
GDP-loaded KRAS-G12C, sequence (P01116 1-188 isoform P01116-2 G12C): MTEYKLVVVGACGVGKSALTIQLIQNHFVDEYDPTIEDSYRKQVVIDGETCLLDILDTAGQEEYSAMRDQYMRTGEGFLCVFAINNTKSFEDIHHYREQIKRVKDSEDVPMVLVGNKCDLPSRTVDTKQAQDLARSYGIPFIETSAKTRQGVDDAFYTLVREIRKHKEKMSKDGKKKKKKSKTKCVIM
GDP-loaded KRAS-G12V, sequence (P01116 1-188 isoform P01116-2 G12V): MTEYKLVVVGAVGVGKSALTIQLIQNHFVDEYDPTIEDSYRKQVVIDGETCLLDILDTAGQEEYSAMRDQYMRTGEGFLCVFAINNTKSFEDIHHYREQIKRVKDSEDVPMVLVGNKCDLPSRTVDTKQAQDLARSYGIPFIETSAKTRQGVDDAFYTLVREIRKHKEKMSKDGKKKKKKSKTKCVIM

In the case of `N#Cc1c(N)sc2c(F)ccc(-c3c(Cl)cc4c(N5CC6(F)CCC(F)(C5)N6)nc(OC[C@@]56CCCN5C[C@H](F)C6)nc4c3F)c12` [Example 7-3], the IC50 (commonly the concentration at which inhibition is half-maximal) amounted to 0.00063 µM in test [1], 0.0017 µM on GDP-loaded KRAS-G12C, 0.00509 µM at GDP-loaded KRAS-G12V and 0.0126 µM at GDP-loaded KRAS-G12D. Also, the EC50 – broadly, the concentration giving half of the maximal effect – was determined as 0.0052 µM in test [2], 0.0168 µM in test [3], 0.00482 µM in test [4] and 0.0397 µM in test [5].

Take `Nc1nc2c(-c3c(Cl)cc4c(N5CC6(F)CCC(F)(C5)N6)nc(OC[C@@]56CCCN5C[C@H](F)C6)nc4c3F)ccc(F)c2s1` [Example 7-4]: the half-inhibitory concentration (IC50) in test [1] was 0.0143 µM; at GDP-loaded KRAS-G12C it was 0.0425 µM; on GDP-loaded KRAS-G12V, over 0.0823 µM; at GDP-loaded KRAS-G12D, over 0.1 µM. Further, the EC50 in test [2] is 0.0135 µM; in test [3] it was 0.0428 µM; in test [4], 0.118 µM; in test [5], 0.459 µM.

With `C#Cc1c(F)ccc2cc(N)nc(-c3c(Cl)cc4c(N5CC6(F)CCC(F)(C5)N6)nc(OC[C@@]56CCCN5C[C@H](F)C6)nc4c3F)c12` [Example 7-5], the half-inhibitory concentration (IC50) (in test [1]; at GDP-loaded KRAS-G12C; on GDP-loaded KRAS-G12V; at GDP-loaded KRAS-G12D) was over 0.1 µM in each case. The EC50 was 0.0218 µM in test [2], 0.179 µM in test [3], 0.548 µM in test [4] and 0.735 µM in test [5].

The values are drawn from US20250059208A1, “KRAS MODULATING COMPOUNDS” (priority 2023, published 2025).
